According to the supplement of paper PMC8253809:

Experiments:
[1] = system: DIPGX7 (H3.3 K27M diffuse intrinsic pontine glioma line); assay: EC50 (inflection of fitted growth-inhibition curve) (log10 M)
Outline: (§1)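 EC50 and maximal response (yFin) were derived from the lowest-AICc fit, either three- or four-parameter log-logistic. The data were pooled CellTiter-Glo luminescence values, log2-transformed and normalised per plate to % activity between negative (solvent) and positive controls. Patient-derived pHGG/DIPG cell lines and astrocyte controls on 1% Geltrex-coated 384-well plates received a 10-point threefold dilution series (mean top concentration 35 μM) by pin tool, in triplicate, for 7 days (iAstro 3 days) at 37 °C, 5% CO2.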

[2] = system: HGGX2 (paediatric high-grade glioma line); assay: as above
Outline: as §1

[3] = system: HGGX42 (H3.3 G34R paediatric high-grade glioma line); assay: as above
Outline: as §1

[4] = system: SUDIPGIV (diffuse intrinsic pontine glioma line); assay: as above
Outline: as §1

[5] = system: SUDIPGVI (diffuse intrinsic pontine glioma line); assay: as above
Outline: as §1

[6] = system: SUDIPGXIII (diffuse intrinsic pontine glioma line); assay: as above
Outline: as §1

[7] = system: SUDIPGXIX (diffuse intrinsic pontine glioma line); assay: as above
Outline: as §1

[8] = system: iAstro (astrocyte control); assay: as above
Outline: as §1

[9] = system: DIPGX7; assay: maximal growth inhibition (yFin) relative to DMSO / staurosporine; higher = more efficacious
Outline: as §1

[10] = system: HGGX2; assay: as above
Outline: as §1

[11] = system: HGGX42; assay: as above
Outline: as §1

[12] = system: SUDIPGIV; assay: as above
Outline: as §1

[13] = system: SUDIPGVI; assay: as above
Outline: as §1

[14] = system: SUDIPGXIII; assay: as above
Outline: as §1

[15] = system: SUDIPGXIX; assay: as above
Outline: as §1

[16] = system: iAstro; assay: as above
Outline: as §1

[17] = system: DIPGX29 (H3.3 K27M diffuse intrinsic pontine glioma line); assay: area under dose-response curve of % growth inhibition (log2 RLU vs DMSO / staurosporine), 1e-11 to 1e-4 M (% x log10 M); higher = more growth inhibition
Outline: (§2)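 Cells were exposed in triplicate for 7 days (iAstro: 3 days) at 37 °C, 5% CO2 to a 10-point series of threefold dilutions with a mean top concentration of 35 μM. These were patient-derived pHGG/DIPG lines plus astrocytes, grown on 384-well plates coated with 1% Geltrex. Readout was CellTiter-Glo luminescence, log2-transformed and set per plate to % activity between solvent and positive controls, from which area under the curve was derived by trapezoid rule on a log-logistic fit or, failing that, a smoothing spline.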

[18] = system: DIPGX37 (H3.3 K27M diffuse intrinsic pontine glioma line); assay: as above
Outline: as §2

[19] = system: DIPGX7; assay: as above
Outline: as §2

[20] = system: DIPGX9 (diffuse intrinsic pontine glioma line); assay: as above
Outline: as §2

[21] = system: HABS (astrocyte control); assay: as above
Outline: as §2

[22] = system: HGGX2; assay: as above
Outline: as §2

[23] = system: HGGX39 (paediatric high-grade glioma line); assay: as above
Outline: as §2

[24] = system: HGGX42; assay: as above
Outline: as §2

[25] = system: HGGX6 (H3.3 G34R paediatric high-grade glioma line); assay: as above
Outline: as §2

[26] = system: SUDIPGIV; assay: as above
Outline: as §2

[27] = system: SUDIPGVI; assay: as above
Outline: as §2

[28] = system: SUDIPGXIII; assay: as above
Outline: as §2

[29] = system: SUDIPGXIX; assay: as above
Outline: as §2

[30] = system: SUDIPGXVII (diffuse intrinsic pontine glioma line); assay: as above
Outline: as §2

[31] = system: SUDIPGXXI (diffuse intrinsic pontine glioma line); assay: as above
Outline: as §2

[32] = system: iAstro; assay: as above
Outline: as §2

[33] = system: DIPGX29; assay: EC50 (inflection of fitted growth-inhibition curve) (log10 M)
Outline: as §1

[34] = system: DIPGX37; assay: as above
Outline: as §1

[35] = system: HGGX39; assay: as above
Outline: as §1

[36] = system: SUDIPGXVII; assay: as above
Outline: as §1

[37] = system: SUDIPGXXI; assay: as above
Outline: as §1

[38] = system: DIPGX29; assay: maximal growth inhibition (yFin) relative to DMSO / staurosporine; higher = more efficacious
Outline: as §1

[39] = system: DIPGX37; assay: as above
Outline: as §1

[40] = system: HGGX39; assay: as above
Outline: as §1

[41] = system: SUDIPGXVII; assay: as above
Outline: as §1

[42] = system: SUDIPGXXI; assay: as above
Outline: as §1

[43] = system: DIPGX9; assay: EC50 (inflection of fitted growth-inhibition curve) (log10 M)
Outline: as §1

[44] = system: HABS; assay: as above
Outline: as §1

[45] = system: HGGX6; assay: as above
Outline: as §1

[46] = system: DIPGX9; assay: maximal growth inhibition (yFin) relative to DMSO / staurosporine; higher = more efficacious
Outline: as §1

[47] = system: HABS; assay: as above
Outline: as §1

[48] = system: HGGX6; assay: as above
Outline: as §1

SMILES | EC50 (log10 M) [1] | EC50 (log10 M) [4] | EC50 (log10 M) [5] | EC50 (log10 M) [6] | maximal growth inhibition [9] [%] | maximal growth inhibition [12] [%] | maximal growth inhibition [13] [%] | maximal growth inhibition [14] [%] | area under dose-response curve [17] | area under dose-response curve [18] | area under dose-response curve [19] | area under dose-response curve [20] | area under dose-response curve [21] | area under dose-response curve [22] | area under dose-response curve [23] | area under dose-response curve [24] | area under dose-response curve [25] | area under dose-response curve [26] | area under dose-response curve [27] | area under dose-response curve [28] | further results
CC[C@]1(O)C[C@H]2CN(CCc3c([nH]c4ccccc34)[C@@](C(=O)OC)(c3cc4c(cc3OC)N(C=O)[C@H]3[C@@](O)(C(=O)OC)[C@H](OC(C)=O)[C@]5(CC)C=CCN6CC[C@]43[C@@H]65)C2)C1 [VINCRISTINE] | -5.71 | -6.56 | -7.28 | -5.77 | 95.3 | 101 | 77.9 | 64 | 163 | 189 | 212 | 292 | 200 | 345 | 152 | 103 | 99.2 | 284 | 256 | 123 | EC50 (log10 M) [2]: -7.75; EC50 (log10 M) [3]: -4.84; EC50 (log10 M) [7]: -6.46; EC50 (log10 M) [8]: -5.97; maximal growth inhibition [10]: 92.8%; maximal growth inhibition [11]: 97.3%; maximal growth inhibition [15]: 98.2%; maximal growth inhibition [16]: 61.4%; area under dose-response curve [29]: 253; area under dose-response curve [30]: 187; area under dose-response curve [31]: 606; area under dose-response curve [32]: 127
Fc1ccc(-c2c3cccc(C(F)(F)F)c3nn2Cc2ccc(F)cc2Cl)cc1 | -5.33 | -5.12 | -4.94 | -5.05 | 40.8 | 60.3 | 42.8 | 51.1 | 38.1 | 53 | 53.6 | 31.5 | 9.3 | 13.1 | 39.9 | 40.2 | 6.34 | 67.1 | 39.9 | 52.8 | EC50 (log10 M) [33]: -4.98; EC50 (log10 M) [34]: -5.07; EC50 (log10 M) [35]: -5.05; EC50 (log10 M) [3]: -5.03; EC50 (log10 M) [36]: -5.16; EC50 (log10 M) [37]: -5.13; EC50 (log10 M) [8]: -5.13; maximal growth inhibition [38]: 38.7%; maximal growth inhibition [39]: 49.6%; maximal growth inhibition [40]: 38.1%; maximal growth inhibition [11]: 38.9%; maximal growth inhibition [41]: 30.9%; maximal growth inhibition [42]: 112%; maximal growth inhibition [16]: 33.9%; area under dose-response curve [29]: 2.47; area under dose-response curve [30]: 40.7; area under dose-response curve [31]: 165; area under dose-response curve [32]: 38.3
CC(C)c1cc(-c2n[nH]c(=O)n2-c2ccc3c(ccn3C)c2)c(O)cc1O [GANETESPIB] | -6.1 | -8.08 | -7.86 | -7.84 | 44.1 | 58.4 | 41.2 | 56 | 195 | 306 | 106 | 440 | 329 | 257 | 271 | 226 | 153 | 238 | 158 | 215 | EC50 (log10 M) [33]: -7.76; EC50 (log10 M) [34]: -7.76; EC50 (log10 M) [43]: -7.98; EC50 (log10 M) [44]: -7.9; EC50 (log10 M) [35]: -7.51; EC50 (log10 M) [45]: -7.85; EC50 (log10 M) [7]: -8.72; EC50 (log10 M) [36]: -7.92; maximal growth inhibition [38]: 51.8%; maximal growth inhibition [39]: 81.5%; maximal growth inhibition [46]: 114%; maximal growth inhibition [47]: 84.5%; maximal growth inhibition [40]: 77.3%; maximal growth inhibition [48]: 39.8%; maximal growth inhibition [15]: 87.3%; maximal growth inhibition [41]: 61.6%; area under dose-response curve [29]: 395; area under dose-response curve [30]: 242; area under dose-response curve [31]: 432; area under dose-response curve [32]: 164
